Experimental data as given in US8389523B2, “Substituted quinoxaline and an agrochemical composition thereof” (Kumiai Chemical Industry Co., Ltd., priority 2007, dated 2013).

Legend:
Type in all cases: in vivo
Design in all cases: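 grade 0 to 5 of growth suppression where 5 is 90% or more and 0 below 10%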
[1] = test system: Echinochloa oryzicola Vasing; experiment: Herbicidal effects in paddy field soil treatment (Test Example 1); conditions: paddy field soil treatment; 1000 g of the active ingredient per hectare; wettable powder added dropwise on water surface; 21st day after treatment
Method in brief: (§1)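 Application rate 1000 g a.i./ha, delivered as water-diluted wettable powder onto flooded (3 cm) paddy soil one day after sowing. Plants kept in a greenhouse and evaluated for herbicidal effect on day 21 post-treatment.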

[2] = test system: Scirpus juncoides Roxb. var. ohwianus. T. Koyama; experiment: as above; conditions: paddy field soil treatment; 1000 g of the active ingredient per hectare; wettable powder added dropwise on water surface; 21st day after treatment
Method in brief: as §1

[3] = test system: Monochoria vaginalis (Burm. f.) Presl var. plantaginea (Roxb.) Solms-Laub.; experiment: as above; conditions: paddy field soil treatment; 1000 g of the active ingredient per hectare; wettable powder added dropwise on water surface; 21st day after treatment
Method in brief: as §1

Amaranthus viridis L. [4] = experiment: Herbicidal effects in upland field soil treatment (Test Example 2); conditions: 1000 g active ingredient per hectare, 21st day after treatment, criteria of Table 138
Method in brief: (§2)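 Herbicidal effect graded 21 days after treatment, plants kept in greenhouse. Treatment was a soil-surface spray of wettable powder in water, 1000 g a.i./ha in 1000 L/ha, applied after sowing and covering seeds.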

[5] = test system: Abutilon theophrasti medicus; experiment: as above; conditions: 1000 g active ingredient per hectare, 21st day after treatment, criteria of Table 138
Method in brief: as §2

Amaranthus viridis L. [6] = experiment: Herbicidal effects in upland field foliar treatment (Test Example 3); conditions: criteria of Table 138; for herbicidal effects on Amaranthus viridis L.: 1000 g of the active ingredient per hectare, 14th day after the treatment, wettable powder; for herbicidal effect (index) on Amaranthus viridis L.: 1000 g active ingredient per hectare, 14th day after treatment
Description: (§3) Test Example 3 Test on Herbicidal Effects in Upland Field Foliar Treatment A 80-cm^2 plastic pot was filled with upland field soil. Seeds of Echinochloa crus-galli (L.) P. Beauv. var. crus-galli, Abutilon theophrasti medicus and Amaranthus viridis L. were sowed, and the plants were grown for two weeks in a greenhouse. A wettable powder formulation prepared according to Preparation Example 1 was diluted with water, and was sprayed with a small sprayer to perform foliar application over the entirety of plants from the upper side, in an amount equivalent to 1000 liters per hectare, such that 1000 g of the active ingredient per hectare was applied. Thereafter, the plants were grown in a greenhouse, and on the 14th day after the treatment, the herbicidal effects were investigated according to the criteria described in the Table 138 shown above.

[7] = test system: Echinochloa crus-galli (L.) P. Beauv. var. crus-galli; experiment: as above; conditions: criteria of Table 138; for herbicidal effects on Echinochloa crus-galli (L.) P. Beauv. var. crus-galli: 1000 g of the active ingredient per hectare, 14th day after the treatment, wettable powder; for herbicidal effect (index) on Echinochloa crus-galli (L.) P. Beauv. var. crus-galli: 1000 g active ingredient per hectare, 14th day after treatment
Description: as §3

[8] = test system: Abutilon theophrasti medicus; experiment: as above; conditions: criteria of Table 138; for herbicidal effects on Abutilon theophrasti medicus: 1000 g of the active ingredient per hectare, 14th day after the treatment, wettable powder; for herbicidal effect (index) on Abutilon theophrasti medicus: 1000 g active ingredient per hectare, 14th day after treatment
Description: as §3

Question: How did the “Herbicidal effects index, Echinochloa oryzicola Vasing” value [1] turn out when O=C1CCCC(O)=C1C(=O)c1nc2cccnc2n(Cc2cccc(C(F)(F)F)c2)c1=O [III-118] was run?
Answer: 5

Question: And the “Herbicidal effects index, Scirpus juncoides Roxb. var. ohwianus. T. Koyama” value [2]?
Answer: 5

Question: And the “Herbicidal effects index, Monochoria vaginalis (Burm. f.) Presl var. plantaginea (Roxb.) Solms-Laub.” value (shortened to “Herbicidal effects index … (Roxb.) Solms-Laub.”) [3]?
Answer: 5

Question: What about the “herbicidal effect (index) on Amaranthus viridis L.” value (Amaranthus viridis L. [4]) of the same molecule?
Answer: 5

Question: What about the “herbicidal effect (index) on Abutilon theophrasti medicus” value [5] of the same molecule?
Answer: 5

Question: What about the “herbicidal effects on Amaranthus viridis L.” value (Amaranthus viridis L. [6]) of the same molecule?
Answer: 5

Question: And the “herbicidal effects on Echinochloa crus-galli (L.) P. Beauv. var. crus-galli” value [7]?
Answer: 5

Question: And the “herbicidal effects on Abutilon theophrasti medicus” value [8]?
Answer: 5

Question: What does the source list for O=C1CCCC(O)=C1C(=O)c1nc2ccccc2n(-c2ccc3c(c2)OC(F)(F)O3)c1=O [I-207]?
Answer: Herbicidal effects index, Echinochloa oryzicola Vasing [1]: 4; Herbicidal effects index, Scirpus juncoides Roxb. var. ohwianus. T. Koyama [2]: 5; Herbicidal effects index, Monochoria vaginalis (Burm. f.) Presl var. plantaginea (Roxb.) Solms-Laub. [3]: 5; herbicidal effect (index) on Amaranthus viridis L. (Amaranthus viridis L. [4]): 5; herbicidal effect (index) on Abutilon theophrasti medicus [5]: 5; herbicidal effect (index) on Amaranthus viridis L. (Amaranthus viridis L. [6]): 5; herbicidal effect (index) on Echinochloa crus-galli (L.) P. Beauv. var. crus-galli [7]: 5; herbicidal effect (index) on Abutilon theophrasti medicus [8]: 5

Question: Which “Herbicidal effects index, Echinochloa oryzicola Vasing” value [1] does the source give for COc1cc(OC)nc(-n2c(=O)c(C(=O)C3=C(O)CCCC3=O)nc3ccccc32)n1 [I-197] here?
Answer: 5

Question: What about the “Herbicidal effects index, Scirpus juncoides Roxb. var. ohwianus. T. Koyama” value [2] of the same molecule?
Answer: 5

Question: What about the “Herbicidal effects index … (Roxb.) Solms-Laub.” value [3] of the same molecule?
Answer: 5

Question: What about the “herbicidal effect (index) on Amaranthus viridis L.” value (Amaranthus viridis L. [4]) of the same molecule?
Answer: 5

Question: What about the “herbicidal effect (index) on Abutilon theophrasti medicus” value [5] of the same molecule?
Answer: 5

Question: What about the “herbicidal effect (index) on Amaranthus viridis L.” value (Amaranthus viridis L. [6]) of the same molecule?
Answer: 5

Question: What about the “herbicidal effect (index) on Echinochloa crus-galli (L.) P. Beauv. var. crus-galli” value [7] of the same molecule?
Answer: 5

Question: What about the “herbicidal effect (index) on Abutilon theophrasti medicus” value [8] of the same molecule?
Answer: 5

Question: CC1(C)C(=O)C(C(=O)c2nc3ccccc3n(-c3ccccc3)c2=O)=C(O)C(C)(C)C1=O [II-5] was tested. Which “Herbicidal effects index, Echinochloa oryzicola Vasing” value [1] did it give?
Answer: 5

Question: And the “Herbicidal effects index, Scirpus juncoides Roxb. var. ohwianus. T. Koyama” value [2]?
Answer: 5

Question: What about the “Herbicidal effects index … (Roxb.) Solms-Laub.” value [3] of the same molecule?
Answer: 5

Question: And the “herbicidal effect (index) on Amaranthus viridis L.” value (Amaranthus viridis L. [4])?
Answer: 5

Question: And the “herbicidal effect (index) on Abutilon theophrasti medicus” value [5]?
Answer: 5

Question: What about the “herbicidal effect (index) on Amaranthus viridis L.” value (Amaranthus viridis L. [6]) of the same molecule?
Answer: 5

Question: And the “herbicidal effect (index) on Echinochloa crus-galli (L.) P. Beauv. var. crus-galli” value [7]?
Answer: 5

Question: And the “herbicidal effect (index) on Abutilon theophrasti medicus” value [8]?
Answer: 5

Question: CC1(C)C(=O)C(C(=O)c2nc3ccccc3n(-c3ccc(Cl)cc3)c2=O)=C(O)C(C)(C)C1=O [II-15] was tested. Which “Herbicidal effects index, Echinochloa oryzicola Vasing” value [1] did it give?
Answer: 5

Question: What about the “Herbicidal effects index, Scirpus juncoides Roxb. var. ohwianus. T. Koyama” value [2] of the same molecule?
Answer: 5

Question: And the “Herbicidal effects index … (Roxb.) Solms-Laub.” value [3]?
Answer: 5

Question: And the “herbicidal effect (index) on Amaranthus viridis L.” value (Amaranthus viridis L. [4])?
Answer: 5

Question: What about the “herbicidal effect (index) on Abutilon theophrasti medicus” value [5] of the same molecule?
Answer: 5

Question: And the “herbicidal effects on Amaranthus viridis L.” value (Amaranthus viridis L. [6])?
Answer: 5

Question: What about the “herbicidal effects on Echinochloa crus-galli (L.) P. Beauv. var. crus-galli” value [7] of the same molecule?
Answer: 5

Question: What about the “herbicidal effects on Abutilon theophrasti medicus” value [8] of the same molecule?
Answer: 5

Question: Which results are given for CCn1c(=O)c(C(=O)C2=C(O)CCCC2=O)nc2ccccc21 [Compound I-7]?
Answer: Herbicidal effects index, Echinochloa oryzicola Vasing [1]: 5; Herbicidal effects index, Scirpus juncoides Roxb. var. ohwianus. T. Koyama [2]: 5; Herbicidal effects index, Monochoria vaginalis (Burm. f.) Presl var. plantaginea (Roxb.) Solms-Laub. [3]: 5; herbicidal effect (index) on Amaranthus viridis L. (Amaranthus viridis L. [4]): 5; herbicidal effect (index) on Abutilon theophrasti medicus [5]: 5; herbicidal effect (index) on Amaranthus viridis L. (Amaranthus viridis L. [6]): 5; herbicidal effect (index) on Echinochloa crus-galli (L.) P. Beauv. var. crus-galli [7]: 4; herbicidal effect (index) on Abutilon theophrasti medicus [8]: 5

Question: For O=C1CCCC(O)=C1C(=O)c1nc2ccccc2n(-c2ncccn2)c1=O [I-195], which “herbicidal effect (index) on Amaranthus viridis L.” value (Amaranthus viridis L. [4]) is on record?
Answer: 5

Question: And the “herbicidal effect (index) on Abutilon theophrasti medicus” value [5]?
Answer: 5

Question: And the “herbicidal effect (index) on Amaranthus viridis L.” value (Amaranthus viridis L. [6])?
Answer: 5

Question: What about the “herbicidal effect (index) on Echinochloa crus-galli (L.) P. Beauv. var. crus-galli” value [7] of the same molecule?
Answer: 5

Question: What about the “herbicidal effect (index) on Abutilon theophrasti medicus” value [8] of the same molecule?
Answer: 5

Question: O=C1CCCC(O)=C1C(=O)c1nc2ccccc2n(C2CCCC2)c1=O [I-21] was tested. Which “herbicidal effect (index) on Amaranthus viridis L.” value (Amaranthus viridis L. [4]) did it give?
Answer: 5

Question: What about the “herbicidal effect (index) on Abutilon theophrasti medicus” value [5] of the same molecule?
Answer: 5

Question: And the “herbicidal effect (index) on Amaranthus viridis L.” value (Amaranthus viridis L. [6])?
Answer: 5

Question: What about the “herbicidal effect (index) on Echinochloa crus-galli (L.) P. Beauv. var. crus-galli” value [7] of the same molecule?
Answer: 5

Question: What about the “herbicidal effect (index) on Abutilon theophrasti medicus” value [8] of the same molecule?
Answer: 5

Question: With COc1cc(-n2c(=O)c(C(=O)C3=C(O)CCCC3=O)nc3c(F)cccc32)cc(OC)c1OC [II-234] as the molecule, how does the “herbicidal effect (index) on Amaranthus viridis L.” value (Amaranthus viridis L. [4]) read?
Answer: 5

Question: What about the “herbicidal effect (index) on Abutilon theophrasti medicus” value [5] of the same molecule?
Answer: 5

Question: What about the “herbicidal effects on Amaranthus viridis L.” value (Amaranthus viridis L. [6]) of the same molecule?
Answer: 5

Question: And the “herbicidal effects on Echinochloa crus-galli (L.) P. Beauv. var. crus-galli” value [7]?
Answer: 4

Question: And the “herbicidal effects on Abutilon theophrasti medicus” value [8]?
Answer: 5

Question: For CSCn1c(=O)c(C(=O)C2=C(O)C3CCC(C3)C2=O)nc2ccccc21 (centres unmarked) [I-71], which “herbicidal effect (index) on Amaranthus viridis L.” value (Amaranthus viridis L. [4]) is on record?
Answer: 5

Question: What about the “herbicidal effect (index) on Abutilon theophrasti medicus” value [5] of the same molecule?
Answer: 5

Question: What about the “herbicidal effect (index) on Amaranthus viridis L.” value (Amaranthus viridis L. [6]) of the same molecule?
Answer: 5

Question: What about the “herbicidal effect (index) on Echinochloa crus-galli (L.) P. Beauv. var. crus-galli” value [7] of the same molecule?
Answer: 5

Question: What about the “herbicidal effect (index) on Abutilon theophrasti medicus” value [8] of the same molecule?
Answer: 5
